According to patent publication US7943608B2, “Diazepinoes” (Merck Patent GmbH, priority 2005, dated 2011):

Molecular target: T1, His6-PDK1(Δ1-50) (Homo sapiens, UniProt O15530)
T1 construct: His6 (N)
T1 sequence (O15530 51-556): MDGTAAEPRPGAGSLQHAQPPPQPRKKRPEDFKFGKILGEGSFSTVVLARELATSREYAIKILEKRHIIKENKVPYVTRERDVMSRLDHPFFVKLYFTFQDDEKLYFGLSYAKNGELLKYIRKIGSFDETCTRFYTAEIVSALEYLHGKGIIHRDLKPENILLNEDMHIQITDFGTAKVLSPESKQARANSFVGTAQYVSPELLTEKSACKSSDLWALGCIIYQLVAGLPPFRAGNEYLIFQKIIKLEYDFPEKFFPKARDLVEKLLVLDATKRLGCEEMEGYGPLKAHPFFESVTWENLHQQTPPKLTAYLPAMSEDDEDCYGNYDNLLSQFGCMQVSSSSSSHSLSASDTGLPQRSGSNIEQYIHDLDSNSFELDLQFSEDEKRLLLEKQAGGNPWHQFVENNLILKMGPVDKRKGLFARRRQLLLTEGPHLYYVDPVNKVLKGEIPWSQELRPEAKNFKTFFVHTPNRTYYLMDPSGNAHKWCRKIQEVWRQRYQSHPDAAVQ
Assay: Inhibition of PDK1 (IC50), 384-well flashplate kinase assay
Assay type: biochemical
Settings: 4 μM ATP, 400 nM PDKtide, second part of Table 1 (compounds 32-124)
Description: Inhibition of PDK1 (IC50)
The kinase assay can be carried out as a 384-well flashplate assay. 3.4 nM His6-PDK1(Δ1-50), 400 nM PDKtide (biotin-bA-bA-[…]) and 4 μM ATP (with 0.2 μCi of 33P-ATP/well) are incubated at […] for 60 min in a total volume of 50 μl (50 mM TRIS, 10 mM Mg acetate, 0.1% of mercaptoethanol, 0.02% of Brij35, 0.1% of BSA, pH 7.5) with or without test substance (5-10 concentrations). The reaction is stopped using 25 μl of 200 mM EDTA solution, filtered with suction after 30 min at room temperature, and the wells are washed with 3 times 100 μl of 0.9% NaCl solution. The nonspecific content of the kinase reaction (blank) is determined using 100 nM staurosporine. Radioactivity is measured using a Topcount scintillation counter (PerkinElmer, USA). IC50 values are calculated using the RS1 computer program.

| SMILES | IC50 [nM] |
| --- | --- |
| CC(C)Cn1cc(-c2ccc3c(c2)NC(=O)c2cnc(N(C)C4CCN(C)CC4)nc2N3)cn1 [Compound 70] | 110 |
| CN(c1ncc2c(n1)Nc1ccc(C(C)(C)C)cc1NC2=O)C1CCNCC1 [Compound 71] | 430 |
| Cc1cc2c(cc1C)Nc1nc(N(C)C3CCN(C(=O)CCN(C)C)CC3)ncc1C(=O)N2 [Compound 72] | 8100 |
| Cc1cc2c(cc1C)Nc1nc(N(C)C3CCN(CCN(C)C)CC3)ncc1C(=O)N2 [Compound 73] | 3900 |
| Cc1cc2c(cc1C)Nc1nc(N(C)C3CCNCC3)ncc1C(=O)N2 [Compound 74] | 320 |
| CC(C)NC(=O)Nc1ccc2c(c1)Nc1nc(N(C)C3CCN(C)CC3)ncc1C(=O)N2 [Compound 75] | 960 |
| CCNC(=O)Nc1ccc2c(c1)Nc1nc(N(C)C3CCN(C)CC3)ncc1C(=O)N2 [Compound 76] | 1300 |
| CCC(C)NC(=O)Nc1ccc2c(c1)Nc1nc(N(C)C3CCN(C)CC3)ncc1C(=O)N2 (centres unmarked) [Compound 77] | 940 |
| CN1CCC(N(C)c2ncc3c(n2)Nc2ccc(NC(=O)NC4CCCC4)cc2NC3=O)CC1 [Compound 78] | 150 |
| CC(C)NC(=O)Nc1cccc2c1Nc1nc(N(C)C3CCN(C)CC3)ncc1C(=O)N2 [Compound 79] | 6000 |
| CN1CCC(N(C)c2ncc3c(n2)Nc2ccc(N)cc2NC3=O)CC1 [Compound 80] | 190 |
| CCCNC(=O)Nc1ccc2c(c1)Nc1nc(N(C)C3CCN(C)CC3)ncc1C(=O)N2 [Compound 81] | 420 |
| CN1CCC(N(C)c2ncc3c(n2)Nc2cc(NC(=O)NC4CCCCC4)ccc2NC3=O)CC1 [Compound 82] | 750 |
| CN1CCC(N(C)c2ncc3c(n2)Nc2ccc(NC(=O)NC(C)(C)C)cc2NC3=O)CC1 [Compound 83] | 200 |
| CN1CCC(N(C)c2ncc3c(n2)Nc2c(NC(=O)NC(C)(C)C)cccc2NC3=O)CC1 [Compound 84] | 5500 |
| CCNC(=O)Nc1ccc2c(c1)NC(=O)c1cnc(N(C)C3CCN(C)CC3)nc1N2 [Compound 85] | 280 |
| CCCNC(=O)Nc1ccc2c(c1)NC(=O)c1cnc(N(C)C3CCN(C)CC3)nc1N2 [Compound 86] | 280 |
| CCC(C)NC(=O)Nc1ccc2c(c1)NC(=O)c1cnc(N(C)C3CCN(C)CC3)nc1N2 (centres unmarked) [Compound 87] | 230 |
| CN1CCC(N(C)c2ncc3c(n2)Nc2ccc(NC(=O)NC4CCCCC4)cc2NC3=O)CC1 [Compound 88] | 150 |
| CN1CCC(N(C)c2ncc3c(n2)Nc2ccc(NC(=O)Nc4cccs4)cc2NC3=O)CC1 [Compound 89] | 200 |
| CN1CCC(N(C)c2ncc3c(n2)Nc2cc(NC(=O)Nc4cccs4)ccc2NC3=O)CC1 [Compound 90] | 290 |
| CCC(C)NC(=O)Nc1cccc2c1Nc1nc(N(C)C3CCN(C)CC3)ncc1C(=O)N2 (centres unmarked) [Compound 92] | 7800 |
| CN1CCC(N(C)c2ncc3c(n2)Nc2c(NC(=O)NC4CCCCC4)cccc2NC3=O)CC1 [Compound 93] | 3500 |
| CN1CCC(N(C)c2ncc3c(n2)Nc2cc(NC(=O)Nc4ccsc4)ccc2NC3=O)CC1 [Compound 94] | 160 |
| Cc1noc(C)c1NC(=O)Nc1ccc2c(c1)Nc1nc(N(C)C3CCN(C)CC3)ncc1C(=O)N2 [Compound 95] | 950 |
| CN1CCC(N(C)c2ncc3c(n2)Nc2ccc(NC(=O)Nc4ccsc4)cc2NC3=O)CC1 [Compound 99] | 120 |
| Cc1noc(C)c1NC(=O)Nc1ccc2c(c1)NC(=O)c1cnc(N(C)C3CCN(C)CC3)nc1N2 [Compound 100] | 220 |
| CN1CCC(N(C)c2ncc3c(n2)Nc2c(NC(=O)Nc4ccsc4)cccc2NC3=O)CC1 [Compound 101] | 340 |
| Cc1noc(C)c1NC(=O)Nc1cccc2c1Nc1nc(N(C)C3CCN(C)CC3)ncc1C(=O)N2 [Compound 102] | 3400 |
